Measurements taken from US8394759B2, “Transdermal delivery of medicaments with combinations of cetylated fatty ester penetrant complexes” (Cymbiotics, Inc., priority 2008, dated 2013).

Assays:
mouse skin = assay: Transdermal diazepam in CFEP-Complex formulation delivered to mouse skin; type: in vivo; conditions: single application to mouse skin in 4-9% CFEP-Complex formulation; preliminary, 'may provide'
Procedure: A formulation for transdermal delivery is a novel format for diazepam or lorazepam or clonazepam, and utilizes the lipophilic properties of each molecule. In one example diazepam is administered in 3 doses, namely 10 mg/gram, 25 mg/gram and 50 mg/gram using a 4-9% CFEP-Complex carrier formulation consisting of cetyl decanoate, cetyl laurate, cetyl myristate, cetyl myristoleate, cetyl oleate, cetyl palmitate, cetyl palmitoleate and cetyl stearate. The polar solvent used is propylene glycol (12%) in the described cream base at a pH of 6.5. A pH range of 6-7 is effective and tocopherol acetate is the antioxidant at 1%. […] The permeant is first finely emulsified in the CFEP-Complex and polar solvent prior to addition of the cream base. A single application of diazepam delivered to mouse skin in this formulation may provide pronounced activity for 5-8 hours. […] Pregabalin in a topical format is also an excellent anti-convulsant and useful in the treatment of seizure already described in examples 4 and 5 above.

[1] = intravenous injection, 5 mg; cited from earlier work
[2] = oral; cited from earlier work
[3] = oral; cited from earlier work; remark: listed apart in the source
patients = conditions: oral formulations; cited from earlier work
[4] = free base; cited from earlier work
[5] = Permeation in the CFEP formulations; conditions: in any of the three formulations of Example 3
arthritic patients = assay: Topical cetylated fatty ester complexes with rubefacients versus placebo base, joint functionality and pain; type: in vivo, human; conditions: eucalyptus oil 1% to 5%, camphor 1-7% in the carrier formulation
From the text: The composition of the invention provides for the administration of permeants with anti-arthritic properties. A topical application consisting of the cetylated fatty ester complexes in concentrations of 5% to 20% with rubefacients (such as methyl salicylate, menthol and for some variations capsaicin can be applied to affected areas of arthritic patients). The permeants were at concentrations ranging from 1-30%. The carrier formulation consisted of a penetrant group of 8 cetyl fatty esters (4-9%; cetyl decanoate, cetyl laurate, cetyl myristate, cetyl myristoleate, cetyl oleate, cetyl palmitate, cetyl palmitoleate and cetyl stearate) with propylene glycol as the polar solvent (12%), in the described cream base at a pH of 6.5. One variation of carrier formulation is also an anti-inflammatory and is used topically to treat joint pain and musculoskeletal pain and other types of pains in arthritis (Kraemer W J et al. 2004 J Rheumatology 31:767-74; Kraemer W J et al. 2005 J Strength and Conditioning Res 19: 475-80 and Sharan et al. 2009, submitted for publication), The preferred polar solvent is propylene glycol. […]

Compound: CN1C(=O)CN=C(c2ccccc2)c2cc(Cl)ccc21 [diazepam]
- duration of pronounced activity (mouse skin): 5 to 8 h

Compound: CCN(CC)CC#CCOC(=O)C(O)(c1ccccc1)C1CCCCC1 (centres unmarked) [oxybutynin]
- Tmax [1]: 15 min

Compound: C/C1=C2/[N-][C@H]([C@H](CC(N)=O)[C@@]2(C)CCC(=O)NC[C@@H](C)OP(=O)([O-])O[C@H]2[C@@H](O)[C@@H](n3cnc4cc(C)c(C)cc43)O[C@@H]2CO)[C@]2(C)N=C(/C(C)=C3N=C(/C=C4N=C1[C@@H](CCC(N)=O)C\4(C)C)[C@@H](CCC(N)=O)[C@]\3(C)CC(N)=O)[C@@H](CCC(N)=O)[C@]2(C)CC(N)=O.[CH3-].[Co+3] [methylcobalamin]
- rate of absorption by passive diffusion [2]: 1-2 % of the ingested material

Compound: CC(C)C[C@H](CN)CC(=O)O [Pregabalin]
- bioavailability [3]: more than 90%
- adverse reactions such as drowsiness and dizziness, share of the patients (patients): more than 10%

Compound: CNC1(c2ccccc2Cl)CCCCC1=O (centres unmarked) [Ketamine, 2-(2-chlorophenyl)-2-(methylamino)-cyclohexanone]
- lipid solubility [4]: 10 times that of thiopentone

Compound: O=C(O)CCCCC1CCSS1 (stereo not drawn) [Alpha lipoic acid]
- permeation [5]: permeates well

Compound: CC12CCC(CC1=O)C2(C)C (centres unmarked) [camphor]
- other rubefacients found to be effective (arthritic patients): effective
